According to ChEMBL document CHEMBL4507276 (2021):

Tests used:
[1] = biological target: Serine/threonine-protein kinase TNNI3K (Homo sapiens) (UniProt Q59H18); settings: Compound concentration 1000.0 nM
[2] = biological target: T1, Serine/threonine-protein kinase D2 (Homo sapiens) (UniProt Q9BZL6); experiment: PRKD2 Invitrogen selectivity data (BI); settings: Compound concentration 3.0 uM
T1 sequence (whole entry): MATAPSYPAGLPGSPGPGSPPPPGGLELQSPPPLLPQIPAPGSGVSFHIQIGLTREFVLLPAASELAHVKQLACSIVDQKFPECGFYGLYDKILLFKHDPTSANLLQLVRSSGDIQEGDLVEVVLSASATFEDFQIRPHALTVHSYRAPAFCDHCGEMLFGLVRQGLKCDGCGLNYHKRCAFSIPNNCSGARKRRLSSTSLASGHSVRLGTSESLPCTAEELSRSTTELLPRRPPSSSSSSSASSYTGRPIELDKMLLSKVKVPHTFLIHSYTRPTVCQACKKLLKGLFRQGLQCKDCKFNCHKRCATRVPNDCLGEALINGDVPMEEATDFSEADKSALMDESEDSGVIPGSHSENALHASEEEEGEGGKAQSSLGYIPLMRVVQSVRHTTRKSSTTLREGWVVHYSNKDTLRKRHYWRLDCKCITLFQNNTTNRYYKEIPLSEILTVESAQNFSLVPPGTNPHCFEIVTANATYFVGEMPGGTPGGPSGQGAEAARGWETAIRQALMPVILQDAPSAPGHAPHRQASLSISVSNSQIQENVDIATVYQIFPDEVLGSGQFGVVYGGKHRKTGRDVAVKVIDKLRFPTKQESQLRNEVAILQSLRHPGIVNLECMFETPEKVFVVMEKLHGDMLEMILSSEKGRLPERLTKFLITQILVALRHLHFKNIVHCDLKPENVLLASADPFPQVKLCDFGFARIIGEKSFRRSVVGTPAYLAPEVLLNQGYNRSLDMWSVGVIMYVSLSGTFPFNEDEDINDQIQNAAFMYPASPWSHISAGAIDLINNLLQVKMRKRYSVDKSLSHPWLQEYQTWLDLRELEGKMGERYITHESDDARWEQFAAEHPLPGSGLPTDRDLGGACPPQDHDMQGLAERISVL

[3] = biological target: B2 bradykinin receptor (Homo sapiens) (UniProt P30411); experiment: B2/H Eurofins-Panlabs selectivity data (BI); settings: filed as antagonist, Compound concentration 10.0 uM
[4] = biological target: Glucocorticoid receptor (Homo sapiens) (UniProt P04150); experiment: GCORTICOID/H Cerep selectivity data (BI); settings: Compound concentration 20.0 uM
[5] = biological target: T2, Rhodopsin kinase GRK7 (Homo sapiens) (UniProt Q8WTQ7); experiment: GRK7 Invitrogen selectivity data (BI); settings: Compound concentration 3.0 uM
T2 sequence (whole entry): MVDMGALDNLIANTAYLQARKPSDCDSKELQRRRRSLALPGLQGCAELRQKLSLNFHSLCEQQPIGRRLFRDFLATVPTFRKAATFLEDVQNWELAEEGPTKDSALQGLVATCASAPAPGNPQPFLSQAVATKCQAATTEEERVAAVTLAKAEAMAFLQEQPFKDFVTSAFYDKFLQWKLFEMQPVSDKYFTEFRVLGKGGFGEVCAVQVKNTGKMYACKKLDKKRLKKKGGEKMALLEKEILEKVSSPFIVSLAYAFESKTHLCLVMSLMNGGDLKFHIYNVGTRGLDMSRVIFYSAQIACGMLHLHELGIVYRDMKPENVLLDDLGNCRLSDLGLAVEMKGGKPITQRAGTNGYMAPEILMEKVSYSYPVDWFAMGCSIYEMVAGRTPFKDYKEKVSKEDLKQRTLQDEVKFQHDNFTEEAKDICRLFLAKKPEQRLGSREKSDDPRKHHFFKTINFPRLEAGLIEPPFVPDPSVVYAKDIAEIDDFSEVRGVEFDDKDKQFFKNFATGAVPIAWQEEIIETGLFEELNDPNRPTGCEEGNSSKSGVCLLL

[6] = biological target: T3, cGMP-dependent protein kinase 1 (Homo sapiens) (UniProt Q13976); experiment: PRKG1 Invitrogen selectivity data (BI); settings: Compound concentration 3.0 uM
T3 sequence (whole entry): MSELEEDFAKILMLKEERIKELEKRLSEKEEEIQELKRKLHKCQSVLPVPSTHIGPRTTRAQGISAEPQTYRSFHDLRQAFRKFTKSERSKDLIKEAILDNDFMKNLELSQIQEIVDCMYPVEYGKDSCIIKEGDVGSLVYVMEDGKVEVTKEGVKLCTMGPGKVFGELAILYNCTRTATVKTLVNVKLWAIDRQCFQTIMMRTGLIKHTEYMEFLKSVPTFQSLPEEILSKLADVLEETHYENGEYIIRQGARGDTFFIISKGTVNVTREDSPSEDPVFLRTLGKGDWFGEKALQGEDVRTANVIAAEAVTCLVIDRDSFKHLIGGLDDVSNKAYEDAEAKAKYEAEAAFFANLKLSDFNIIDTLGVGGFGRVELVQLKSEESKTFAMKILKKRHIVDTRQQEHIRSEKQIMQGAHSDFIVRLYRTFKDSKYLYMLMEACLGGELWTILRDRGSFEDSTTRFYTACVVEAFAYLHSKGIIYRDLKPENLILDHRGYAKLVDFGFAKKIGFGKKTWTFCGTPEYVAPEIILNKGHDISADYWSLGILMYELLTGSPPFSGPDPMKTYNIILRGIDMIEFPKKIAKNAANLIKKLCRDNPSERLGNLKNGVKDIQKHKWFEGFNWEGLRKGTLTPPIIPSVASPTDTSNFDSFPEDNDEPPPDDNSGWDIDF

[7] = biological target: T4, Protein kinase C iota type (Homo sapiens) (UniProt P41743); experiment: PRKCI Invitrogen selectivity data (BI); settings: Compound concentration 3.0 uM
T4 sequence (whole entry): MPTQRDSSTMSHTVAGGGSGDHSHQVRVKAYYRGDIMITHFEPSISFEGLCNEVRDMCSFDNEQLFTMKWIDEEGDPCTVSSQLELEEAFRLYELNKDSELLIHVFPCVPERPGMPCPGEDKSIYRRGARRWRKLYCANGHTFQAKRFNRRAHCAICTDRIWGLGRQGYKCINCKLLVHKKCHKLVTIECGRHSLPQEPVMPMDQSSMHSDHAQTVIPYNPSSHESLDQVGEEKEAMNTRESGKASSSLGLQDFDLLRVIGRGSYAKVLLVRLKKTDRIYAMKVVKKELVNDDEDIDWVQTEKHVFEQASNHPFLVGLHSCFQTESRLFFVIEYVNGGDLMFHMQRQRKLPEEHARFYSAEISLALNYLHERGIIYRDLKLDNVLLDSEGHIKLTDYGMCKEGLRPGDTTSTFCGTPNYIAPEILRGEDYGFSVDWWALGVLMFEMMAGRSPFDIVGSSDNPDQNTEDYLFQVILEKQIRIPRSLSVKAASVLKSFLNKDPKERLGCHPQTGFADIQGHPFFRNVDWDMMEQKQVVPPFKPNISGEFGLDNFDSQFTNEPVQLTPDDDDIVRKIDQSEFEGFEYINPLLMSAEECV

Measured: residual activity

Sequence of Glucocorticoid receptor (Homo sapiens) (P04150 whole entry): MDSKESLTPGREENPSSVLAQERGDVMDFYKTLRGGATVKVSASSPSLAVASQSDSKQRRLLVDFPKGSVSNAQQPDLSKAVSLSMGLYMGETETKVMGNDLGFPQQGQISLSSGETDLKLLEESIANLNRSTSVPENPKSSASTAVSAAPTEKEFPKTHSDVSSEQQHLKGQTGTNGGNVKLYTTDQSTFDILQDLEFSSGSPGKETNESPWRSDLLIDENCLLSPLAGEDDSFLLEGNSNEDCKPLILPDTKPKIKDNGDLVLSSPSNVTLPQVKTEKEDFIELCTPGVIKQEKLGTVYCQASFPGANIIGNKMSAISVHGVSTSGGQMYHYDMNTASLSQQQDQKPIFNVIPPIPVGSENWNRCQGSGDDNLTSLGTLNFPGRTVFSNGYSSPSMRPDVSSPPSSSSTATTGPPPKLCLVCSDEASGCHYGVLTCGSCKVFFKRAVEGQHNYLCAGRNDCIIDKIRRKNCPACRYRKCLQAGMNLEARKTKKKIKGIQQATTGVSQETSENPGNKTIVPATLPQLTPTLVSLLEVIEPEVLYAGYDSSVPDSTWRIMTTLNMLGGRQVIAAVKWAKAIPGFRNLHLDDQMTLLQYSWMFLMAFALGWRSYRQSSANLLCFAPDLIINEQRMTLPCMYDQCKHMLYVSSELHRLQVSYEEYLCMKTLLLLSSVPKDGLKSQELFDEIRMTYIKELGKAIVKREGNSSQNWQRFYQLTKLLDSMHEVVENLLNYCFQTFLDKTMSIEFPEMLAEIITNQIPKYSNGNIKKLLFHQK
Sequence of Serine/threonine-protein kinase TNNI3K (Homo sapiens) (Q59H18 whole entry): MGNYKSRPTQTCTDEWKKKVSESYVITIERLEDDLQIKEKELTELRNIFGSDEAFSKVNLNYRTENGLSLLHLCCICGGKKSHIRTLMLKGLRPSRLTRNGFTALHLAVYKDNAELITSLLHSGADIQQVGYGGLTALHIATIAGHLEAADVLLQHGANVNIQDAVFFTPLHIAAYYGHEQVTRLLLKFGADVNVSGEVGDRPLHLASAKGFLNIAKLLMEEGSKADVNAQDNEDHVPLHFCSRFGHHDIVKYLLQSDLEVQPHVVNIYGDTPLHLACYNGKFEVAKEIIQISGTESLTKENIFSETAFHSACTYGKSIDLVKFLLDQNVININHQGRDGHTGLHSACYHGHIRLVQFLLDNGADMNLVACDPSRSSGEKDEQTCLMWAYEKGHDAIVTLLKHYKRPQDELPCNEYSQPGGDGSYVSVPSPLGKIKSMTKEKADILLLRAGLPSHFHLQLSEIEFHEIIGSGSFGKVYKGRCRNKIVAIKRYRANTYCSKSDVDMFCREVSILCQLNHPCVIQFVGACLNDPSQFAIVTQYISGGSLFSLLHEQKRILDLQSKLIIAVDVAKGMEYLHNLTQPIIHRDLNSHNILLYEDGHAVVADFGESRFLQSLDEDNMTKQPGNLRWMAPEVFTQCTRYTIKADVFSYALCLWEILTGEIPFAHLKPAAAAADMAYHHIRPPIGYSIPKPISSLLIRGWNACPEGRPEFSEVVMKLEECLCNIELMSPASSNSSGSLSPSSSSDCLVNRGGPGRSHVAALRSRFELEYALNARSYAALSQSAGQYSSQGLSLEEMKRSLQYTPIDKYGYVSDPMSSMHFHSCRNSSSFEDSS
Sequence of B2 bradykinin receptor (Homo sapiens) (P30411 whole entry): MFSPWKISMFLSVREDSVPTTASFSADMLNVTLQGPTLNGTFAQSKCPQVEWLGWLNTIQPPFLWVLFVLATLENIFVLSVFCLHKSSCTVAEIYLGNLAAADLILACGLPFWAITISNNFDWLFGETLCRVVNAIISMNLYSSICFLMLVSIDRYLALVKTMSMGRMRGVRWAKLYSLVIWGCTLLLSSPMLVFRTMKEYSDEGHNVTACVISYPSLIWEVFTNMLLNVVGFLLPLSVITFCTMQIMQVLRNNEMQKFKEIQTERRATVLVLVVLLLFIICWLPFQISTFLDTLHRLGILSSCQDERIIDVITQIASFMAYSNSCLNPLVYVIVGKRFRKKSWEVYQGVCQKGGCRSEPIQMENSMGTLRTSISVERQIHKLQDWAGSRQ

CN(C)C(=O)Cn1cc(-c2nc(C3(c4ccc(-c5cnc(N)nc5)cc4)CC3)no2)cn1 [BI 0153]
inactive: [1] 100%

CN(C)C(=O)Cn1cc(-c2nc([C@@](C)(c3ccc(-c4cnc(N)nc4)cc3)C3CC3)no2)cn1 [BI 665915]
inactive: [2] 95% | [3] 123% | [4] 96% | [5] 101% | [6] 102% | [7] 97%
